Test system: 996289-038-R-J1-PDC spheroid viability
Assay: Anticancer human tumor 996289-038-R-J1-PDC patient-derived colon adenocarcinoma cell line growth inhibition [PI3K]
Conditions: spheroids with HUVEC and MSC; for viability, T/C: stronger effect = lower value
From the text: Combinatorial screen of targeted agents with the PI3K inhibitors inavolisib, alpelisib, duvelisib, and copanlisib in multi-cell type tumor spheroids
A high-throughput screen of multi-cell type tumor spheroids was designed to identify active combinations of targeted small molecules and PI3K pathway inhibitors. Complex spheroids include a stromal component modeled by human endothelial cells (HUVEC) and fibroblasts modeled by human mesenchymal stem cells (MSCs). The concentration ranges selected for each drug and investigational agent were based upon clinically achievable concentrations if the clinical Cmax of the agent was known.
Compounds. The drugs and investigational agents: inavolisib (NSC800729), alpelisib (NSC765974), duvelisib (NSC772469), copanlisib (NSC816437), ipatasertib (NSC767898), afuresertib (NSC778305), talazoparib (NSC767125), sapanisertib (NSC764658), selumetinib (NSC741078), tovorafenib (DAY101, NSC766906), vemurafenib (NSC761431), ravoxertinib (NSC781343), sotorasib (NSC818433), MRTX1133 (NSC 836407), abemaciclib (NSC 768073), palbociclib (NSC758247), venetoclax (NSC 766270), SY5609 (NSC837396), enzalutamide (NSC755605), and darolutamide (NSC825331), were obtained from the National Cancer Institute (NCI) Developmental Therapeutics Program Chemical Repository. The FDA-approved anticancer drug set is available from the NCI Developmental Therapeutics Program. […] The stock solutions were prepared in dimethyl sulfoxide (DMSO, Sigma-Aldrich, St. Louis, MO, cat. D2650) at 800-fold the tested concentration and stored at -70 degrees C prior to their use. All drugs and investigational agents were tested over a range starting from a high concentration at or near the clinical Cmax and decreasing in half-log increments. If the clinical Cmax for an agent had not been determined, the highest concentration tested was 10 microM.
Cell Culture. All cells were maintained in an incubator at 37 degrees C and 5% CO2 with 95% humidity. The PDC lines were cultured according to standard operating procedures established by the NCI PDMR (https://pdmr.cancer.gov/sops/default.htm). All PDCs were thawed and cultured in Matrigel-coated flasks prepared with a working solution of 1X Ham's F-12 nutrient mix, without supplementation (Invitrogen, Waltham, MA, cat. 11765054), 100 U/mL penicillin-streptomycin (Invitrogen, cat. 15140122), and 2.5% Matrigel (Corning Inc., Corning, NY, cat. 354248) for the first three passages. The 354836-022-R-J1-PDC, 475296-252-R-J1-PDC, and 997726-040-R-J2-PDC lines were cultured in 6A media, which includes advanced DMEM/F-12 (Thermo Fisher Scientific, cat. 12634028), 10 mM HEPES (Thermo Fisher Scientific, cat. 15630080), 1X GlutaMAX supplement (Thermo Fisher Scientific, cat. 35050061), 0.1 mg/mL primocin (InvivoGen, San Diego, CA, cat. ant-pm-2), 10% defined fetal bovine serum, heat inactivated (HyClone Laboratories Inc., Logan, UT, cat. SH30070.03HI), 50% L-WRN conditioned media (ATCC, cat. CRL-3276), 1.25 mM N-Acetyl-L-cysteine (Sigma-Aldrich, cat. A9165), 10 mM nicotinamide (Sigma-Aldrich, cat. N0636), 1X B-27 supplement (Thermo Fisher Scientific, cat. 17504044), 1X N-2 supplement (Thermo Fisher Scientific, cat. 17502048), and 10 microM Y-27632 dihydrochloride (Tocris Bioscience, Bristol, United Kingdom, cat. 1254). The 624824-186-R-J2-PDC line was cultured in 6C/Colon 1B media, which includes all 6A media components plus 50 ng/mL human EGF recombinant protein (Thermo Fisher Scientific, cat. PHG0311). […]
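Note: spheroids exposed to compounds for seven days before viability read.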
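Throughout, for viability, T/C: luminescence used as a proxy for viable cell amount; percent viability relative to DMSO vehicle control as 100%.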

## CC(Cn1ccc(-c2ccc(C#N)c(Cl)c2)n1)NC(=O)c1cc(C(C)O)[nH]n1 (centres undefined) + COc1c(OCCCN2CCOCC2)ccc2c3n(c(=NC(=O)c4cnc(N)nc4)nc12)CCN3
Curve of first compound, second compound 0.00316 µM
  IC50: > 10 µM
Curve of first compound, second compound 0.01 µM
  IC50: > 10 µM
Curve of first compound, second compound 0.0316 µM
  IC50: > 10 µM
Curve of first compound, second compound 0.1 µM
  IC50: > 10 µM
Curve of first compound, second compound 0.316 µM
  IC50: < 0.0316 µM
Curve of first compound, second compound 1 µM
  IC50: < 0.0316 µM
Second compound 0.00316 µM, first compound 0.0316 µM
  viability, T/C: 103%
Second compound 0.00316 µM, first compound 0.1 µM
  viability, T/C: 91.1%
Second compound 0.00316 µM, first compound 0.316 µM
  viability, T/C: 98%
Second compound 0.00316 µM, first compound 1 µM
  viability, T/C: 99%
Second compound 0.00316 µM, first compound 3.16 µM
  viability, T/C: 96.9%
Second compound 0.00316 µM, first compound 10 µM
  viability, T/C: 102%
Second compound 0.01 µM, first compound 0.0316 µM
  viability, T/C: 90.5%
Second compound 0.01 µM, first compound 0.1 µM
  viability, T/C: 97.2%
Second compound 0.01 µM, first compound 0.316 µM
  viability, T/C: 92.6%
Second compound 0.01 µM, first compound 1 µM
  viability, T/C: 93.1%
Second compound 0.01 µM, first compound 3.16 µM
  viability, T/C: 103%
Second compound 0.01 µM, first compound 10 µM
  viability, T/C: 89.7%
Second compound 0.0316 µM, first compound 0.0316 µM
  viability, T/C: 69.7%
Second compound 0.0316 µM, first compound 0.1 µM
  viability, T/C: 79.4%
Second compound 0.0316 µM, first compound 0.316 µM
  viability, T/C: 85.6%
Second compound 0.0316 µM, first compound 1 µM
  viability, T/C: 80%
Second compound 0.0316 µM, first compound 3.16 µM
  viability, T/C: 78.9%
Second compound 0.0316 µM, first compound 10 µM
  viability, T/C: 78.7%
Second compound 0.1 µM, first compound 0.0316 µM
  viability, T/C: 55%
Second compound 0.1 µM, first compound 0.1 µM
  viability, T/C: 56.6%
Second compound 0.1 µM, first compound 0.316 µM
  viability, T/C: 66.7%
Second compound 0.1 µM, first compound 1 µM
  viability, T/C: 64.8%
Second compound 0.1 µM, first compound 3.16 µM
  viability, T/C: 72.3%
Second compound 0.1 µM, first compound 10 µM
  viability, T/C: 56.1%
Second compound 0.316 µM, first compound 0.0316 µM
  viability, T/C: 34.1%
Second compound 0.316 µM, first compound 0.1 µM
  viability, T/C: 38.9%
Second compound 0.316 µM, first compound 0.316 µM
  viability, T/C: 40%
Second compound 0.316 µM, first compound 1 µM
  viability, T/C: 41%
Second compound 0.316 µM, first compound 3.16 µM
  viability, T/C: 40.5%
Second compound 0.316 µM, first compound 10 µM
  viability, T/C: 39.9%
Second compound 1 µM, first compound 0.0316 µM
  viability, T/C: 25.2%
Second compound 1 µM, first compound 0.1 µM
  viability, T/C: 17.5%
Second compound 1 µM, first compound 0.316 µM
  viability, T/C: 23%
Second compound 1 µM, first compound 1 µM
  viability, T/C: 18%
Second compound 1 µM, first compound 3.16 µM
  viability, T/C: 22.1%
Second compound 1 µM, first compound 10 µM
  viability, T/C: 17.5%

## C#Cc1c(F)ccc2cc(O)cc(-c3ncc4c(N5CC6CCC(C5)N6)nc(OCC56CCCN5CC(F)C6)nc4c3F)c12 (centres undefined)
Compound 0.0316 µM
  viability, T/C: 90.4% [middle of 4 runs]
Compound 0.1 µM
  viability, T/C: 83.8% [middle of 4 runs]
Compound 0.316 µM
  viability, T/C: 70.2% [middle of 4 runs]
Compound 1 µM
  viability, T/C: 52.4% [middle of 4 runs]
Compound 3.16 µM
  viability, T/C: 44.8% [middle of 4 runs]
Compound 10 µM
  viability, T/C: 37.7% [middle of 4 runs]
Curve of compound
  IC50: 1.79 µM [middle of 4 runs]

From PubChem BioAssay AID1963965 (Molecular Pharmacology Branch, DTP, NCI, 2024)
